pEC50: −log10 of the molar value. Read-outs that look alike come from different tables or passages of the source.
Legend:
Type in all cases: cell-based
[1] = system: Primary human epidermal keratinocytes, HeKa; test: HeKa cytokine release (IL-8) assay
Experimental: HeKa Cytokine Release (IL-8) Assay:
Primary human epidermal keratinocytes, HeKa, were seeded (10.000 cells/well) in 96-well plates the day before the assay. Test compounds were diluted in DMSO (dimethyl sulfoxide) and further diluted in assay medium and pipetted into wells of 96 well-plates containing HeKa cells. The plates were incubated for 6 h at 37° C. in humidified air with 5% CO2. Plates were centrifuged briefly to spin down cells at 4° C., the supernatant was removed and analysed by Meso Scale Discovery (MSD) 4-spot cytokine assay (Pro-inflammatory II Ultra Sensitive kit, MSD, MD, USA). The MSD assay employs a sandwich immunoassay format where capture antibodies are coated in a patterned array on the bottom of the wells of a 4-Spot-Multi-MSD plate. Standard samples were incubated in the MULTI-SPOT plates as well, and the cytokine (IL-8) binds to its corresponding capture antibody spot. The cytokine level was quantitated on a SECTOR™ Imager using a cytokine-specific Detection Antibody labelled with MSD SULFO-TAG™ reagent.
(§1) Test compound titration curves were fitted to a four-parameter sigmoidal curve after normalizing the effect of the test compound to the effect of the positive control (1.5×10^−7 M PEP0005). Rel EC50 denotes the concentration of test compound producing an effect that is midway between the fitted top and bottom.

[2] = system: PMN's (polymorphonuclear leukocytes); test: Neutrophil oxidative burst assay; conditions: Leukocyte, 40 min, read-out: Neutrophil oxidative burst Rel EC50 range
Experimental: Neutrophil Oxidative Burst Assay:
PMN's (polymorphonuclear leukocytes) were isolated and purified from fresh buffy coats by sequential sedimentation, density centrifugation and lysis of contaminating erythrocytes. Buffy coats were incubated with 2% methocel for 30-45 min to differentially sediment red blood cells. The leukocyte-rich supernatant was transferred to lymphoprep tubes to remove mononuclear cells by density centrifugation (400×g, 30 min). The pellet was resuspended and any remaining erythrocytes lysed using 0.2% NaCl for 30 sec before restoring isotonicity by the addition of 1.2% NaCl. This step was repeated until the cell pellet appears relatively free of red blood cells. Cells were resuspended in DPBS (Dulbecco's Phosphate Buffered Saline) (w.o. Ca^2+, Mg^2+) and the concentration adjusted to 1.4×10^6 cells/ml in HBSS (Hanks Balanced Salt solution) (w Ca^2+, Mg^2+) containing 0.1% BSA (Bovine Serum Albumin) and 5 mM glucose just prior to assay initiation. Titrated reference and test compounds were pre-mixed with HE (Hydroethidine) (10 μM final assay concentration) before addition to 96-well plates containing 2.5×10^5 cells. Following 40 min incubation at RT, changes in the respiratory burst was estimated by measuring fluorescence at 579 nm (excitation: 485 nm) using an Envision plate reader.
as §1, with “(5×10^−7” for “(1.5×10^−7”, “bottom. Abs EC50 is the concentration of test compound that provokes a response corresponding to 50% of the maximal effect associated with the positive control (5×10^−7 M PEP0005).” for “bottom.”

HeLa cells = test: Necrosis assay; conditions: Homo sapiens, 0.5 h, read-out: HeLa Necrosis EC50 range
Experimental: HeLa cells (ATCC CCL-002) were grown in minimal essential medium (Invitrogen catalog no. 42360) containing 10% fetal bovine serum, 100 IU/ml penicillin and 100 μg/ml streptomycin. 4,000-6,000 cells were seeded into 96-well black ViewPlates-plates, clear bottom, (Perkin Elmer) in 100 μl medium and incubated overnight. Compounds were dissolved and pre-diluted in DMSO in 96-well polypropylene plates (Greiner) in a concentration range of 15 μM to 600 μM. At the time of the experiment cell plates were placed on heating blocks at 37° C., medium was removed and 40 μl fresh, pre-warmed medium was added per well. Cells were incubated for 15 min before addition of compounds. In parallel, 3 μl of compounds were diluted with 197 μl growth medium on a Tecan freedom-EVO pipetting station using 250 μl/s pipetting speed, in order to ensure effective mixing of the highly concentrated compound solutions with the aqueous phase. These pre-dilution plates were then equilibrated on heating blocks at 37° C. for 10 min. 80 μl pre-diluted compound were transferred manually to the corresponding wells containing HeLa cells yielding compound concentrations of 10 μM to 400 μM. Control conditions were 1% DMSO in growth medium (100% viability) and 400 μM ingenol mebutate in growth medium (0% viability). Plates were incubated on the heating blocks at 37° C. for 30 min. At the end of the incubation 10 μl PrestoBlue reagent (Invitrogen) were added to each well, plates were sealed with black seal, followed by incubation at 37° C. for 10 min with gentle shaking (150 rpm). Subsequently, plates were placed at room temperature for 20-30 min. Plates were read immediately after on an Envision Fluorescence reader (Perkin Elmer) with excitation at 535 nm and emission at 630 nm. Test compound titration curves were fitted to a four-parameter sigmoidal curve after normalizing the effect of the test compound to the effect of the positive control (4 10^−4 M PEP0005/ingenol mebutate). AbsEC50 denotes the concentration of test compound producing 50% effect.

[3] = HEKa, 6 h, read-out: HeKa cytokine release (IL-8) Rel EC50 range
[4] = HeKa cells, 6 h at 37° C., MSD IL-8, normalized to 1.5×10^−7 M PEP0005, read-out: HeKa cytokine release (IL-8) Rel EC50 range
[5] = PMNs, 40 min at RT, hydroethidine fluorescence, normalized to 5×10^−7 M PEP0005
[6] = HeLa cells, 30 min at 37° C., PrestoBlue, AbsEC50, normalized to 4 10^−4 M PEP0005/ingenol mebutate

For `CC(C)=CC(=O)O[C@H]1C(C)=C[C@]23C(=O)[C@@H](C=C(CO)[C@@H](O)[C@]12O)[C@H]1[C@@H](C[C@H]3C)C1(C)C` [Compound 102, Ingenol 3-(3-methyl-butenoate)], the pEC50 [1, 3] was 7.00 to 7.70, the pEC50 [2] was > 7.70 and the pEC50 (HeLa cells; HeLa) was 3.46 to 3.82.
`CC1=C[C@]23C(=O)[C@@H](C=C(CO)[C@@H](O)[C@]2(O)[C@H]1OC(=O)C(=O)N(C)c1ccccc1)[C@H]1[C@@H](C[C@H]3C)C1(C)C` [Compound 121, Ingenol 3-(2-(methyl(phenyl)amino)-2-oxo-acetate)] was tested, and the pEC50 [1, 3] was < 7.00, the pEC50 [2] was 7.00 to 7.70 and the pEC50 (HeLa cells; HeLa) was > 3.46.
With `CO/N=C(\C(=O)O[C@H]1C(C)=C[C@]23C(=O)[C@@H](C=C(CO)[C@@H](O)[C@]12O)[C@H]1[C@@H](C[C@H]3C)C1(C)C)c1ccccc1` [Compound 115, Ingenol 3-((2Z)-2-methoxyimino-2-phenyl-acetate)] the pEC50 [1, 3] was > 7.70, the pEC50 [2] was 7.00 to 7.70 and the pEC50 (HeLa cells; HeLa) was > 3.82.
For `C/C=C(/C(=O)O[C@H]1C(C)=C[C@]23C(=O)[C@@H](C=C(CO)[C@@H](O)[C@]12O)[C@H]1[C@@H](C[C@H]3C)C1(C)C)c1ccccc1` [Compound 118, Ingenol 3-((E)-2-phenylbut-2-enoate)], the pEC50 [1, 3] was > 7.70, the pEC50 [2] was > 7.70 and the pEC50 (HeLa cells; HeLa) was > 3.82.
`CO/N=C(/C(=O)O[C@H]1C(C)=C[C@]23C(=O)[C@@H](C=C(CO)[C@@H](O)[C@]12O)[C@H]1[C@@H](C[C@H]3C)C1(C)C)c1ccccc1` [Compound 116, Ingenol 3-((2E)-2-methoxyimino-2-phenyl-acetate)] showed a pEC50 [1, 3] of 7.00 to 7.70 and a pEC50 [2] of 7.00 to 7.70.
For `C/C=C(/C)C(=O)O[C@H]1C(C)=C[C@]23C(=O)[C@@H](C=C(CO)[C@@H](O)[C@]12O)[C@H]1[C@@H](C[C@H]3C)C1(C)C` [PEP005, Ingenol-3-angelate, reference compound], the pEC50 [1, 4] was > 7.70, the pEC50 [2, 5] was > 7.70 and the pEC50 (HeLa cells; [6]) was 3.46 to 3.82.
With `CCC(CC)C(=O)O[C@H]1C(C)=C[C@]23C(=O)[C@@H](C=C(CO)[C@@H](O)[C@]12O)[C@H]1[C@@H](C[C@H]3C)C1(C)C` [Compound 109, Ingenol 3-(2-ethyl-butanoate)] the pEC50 [1, 3] was > 7.70, the pEC50 [2] was > 7.70 and the pEC50 (HeLa cells; HeLa) was 3.46 to 3.82.
For `CC1=C[C@]23C(=O)[C@@H](C=C(CO)[C@@H](O)[C@]2(O)[C@H]1OC(=O)C(C#N)=C1CCCCC1)[C@H]1[C@@H](C[C@H]3C)C1(C)C` [Compound 120, Ingenol 3-(2-cyano-2-cyclohexylidene-acetate)], the pEC50 [1, 3] was < 7.00 and the pEC50 [2] was > 7.70.
For `C=C(C)C(=O)O[C@H]1C(C)=C[C@]23C(=O)[C@@H](C=C(CO)[C@@H](O)[C@]12O)[C@H]1[C@@H](C[C@H]3C)C1(C)C` [Compound 101, Ingenol 3-(2-methyl-acrylate)], the pEC50 [1, 3] was < 7.00, the pEC50 [2] was > 7.70 and the pEC50 (HeLa cells; HeLa) was 3.46 to 3.82.
With `C=C(CC)C(=O)O[C@H]1C(C)=C[C@]23C(=O)[C@@H](C=C(CO)[C@@H](O)[C@]12O)[C@H]1[C@@H](C[C@H]3C)C1(C)C` [Compound 104, Ingenol 3-(2-methylene-butyrate)] the pEC50 [1, 3] was 7.00 to 7.70, the pEC50 [2] was > 7.70 and the pEC50 (HeLa cells; HeLa) was 3.46 to 3.82.
With `CCC(C)C(=O)O[C@H]1C(C)=C[C@]23C(=O)[C@@H](C=C(CO)[C@@H](O)[C@]12O)[C@H]1[C@@H](C[C@H]3C)C1(C)C` (stereo partly shown) [Compound 107a and Compound 107b, Ingenol 3-(RS-2-methyl-butanoate)] the pEC50 [1, 3] was 7.00 to 7.70 and the pEC50 [2] was > 7.70.
For `C/C=C(\C)C(=O)O[C@H]1C(C)=C[C@]23C(=O)[C@@H](C=C(CO)[C@@H](O)[C@]12O)[C@H]1[C@@H](C[C@H]3C)C1(C)C` [Compound 111, Ingenol 3-tiglate], the pEC50 [1, 4] was 7.00 to 7.70, the pEC50 [2, 5] was > 7.70 and the pEC50 (HeLa cells; [6]) was > 3.46.
With `CC1=C[C@]23C(=O)[C@@H](C=C(CO)[C@@H](O)[C@]2(O)[C@H]1OC(=O)Cc1ccccc1)[C@H]1[C@@H](C[C@H]3C)C1(C)C` [Compound 112, Ingenol 3-(phenyl-acetate)] the pEC50 [1, 4] was < 7.00, the pEC50 [2, 5] was > 7.70 and the pEC50 (HeLa cells; [6]) was 3.46 to 3.82.
In the case of `CC1=C[C@]23C(=O)[C@@H](C=C(CO)[C@@H](O)[C@]2(O)[C@H]1OC(=O)CC(C)C)[C@H]1[C@@H](C[C@H]3C)C1(C)C` [Compound 106, Ingenol 3-(3-methyl-butanoate)], the pEC50 [1, 3] was 7.00 to 7.70 and the pEC50 [2] was > 7.70.
For `CC1=C[C@]23C(=O)[C@@H](C=C(CO)[C@@H](O)[C@]2(O)[C@H]1OC(=O)/C(C)=C\c1ccc(C)cc1)[C@H]1[C@@H](C[C@H]3C)C1(C)C` [Compound 117, Ingenol 3-((Z)-2-methyl-3-(p-tolyl)prop-2-enoate)], the pEC50 [1, 3] was > 7.70, the pEC50 [2] was > 7.70 and the pEC50 (HeLa cells; HeLa) was > 3.82.
In the case of `CC[C@@H](C)C(=O)O[C@H]1C(C)=C[C@]23C(=O)[C@@H](C=C(CO)[C@@H](O)[C@]12O)[C@H]1[C@@H](C[C@H]3C)C1(C)C` [Compound 110, Ingenol 3-(2R-methyl-butanoate)], the pEC50 [1, 3] was 7.00 to 7.70 and the pEC50 [2] was > 7.70.
In the case of `CC1=C[C@]23C(=O)[C@@H](C=C(CO)[C@@H](O)[C@]2(O)[C@H]1OC(=O)C(C)=C(C)C)[C@H]1[C@@H](C[C@H]3C)C1(C)C` [Compound 103, Ingenol 3-(2,3-dimethyl-butenoate)], the pEC50 [1, 3] was > 7.70, the pEC50 [2] was > 7.70 and the pEC50 (HeLa cells; HeLa) was 3.46 to 3.82.
In the case of `CC1=C[C@]23C(=O)[C@@H](C=C(CO)[C@@H](O)[C@]2(O)[C@H]1OC(=O)C(C)C)[C@H]1[C@@H](C[C@H]3C)C1(C)C` [Compound 105, Ingenol 3-(2-methyl-propanoate)], the pEC50 [1, 3] was 7.00 to 7.70 and the pEC50 [2] was > 7.70.
With `COC(=O)/C=C/C(=O)O[C@H]1C(C)=C[C@]23C(=O)[C@@H](C=C(CO)[C@@H](O)[C@]12O)[C@H]1[C@@H](C[C@H]3C)C1(C)C` [Compound 113, Ingenol 3-(2Z-(methoxycarbonyl))-acrylate] the pEC50 [2] was < 7.00.
In the case of `CC1=C[C@]23C(=O)[C@@H](C=C(CO)[C@@H](O)[C@]2(O)[C@H]1OC(=O)C(c1ccccc1)c1ccccc1)[C@H]1[C@@H](C[C@H]3C)C1(C)C` [Compound 119, Ingenol 3-(2,2-diphenylacetate)], the pEC50 [1, 3] was > 7.70, the pEC50 [2] was > 7.70 and the pEC50 (HeLa cells; HeLa) was > 3.82.

— patent publication US9388124B2, “Ingenol-3-acylates I” (LEO LABORATORIES LIMITED, priority 2010, dated 2016)
